{"source": "paper PMC9563442", "about": "“Purification, Characterization, and Immobilization of a Novel Protease-Resistant α-Galactosidase from Oudemansiella radicata and Its Application in Degradation of Raffinose Family Oligosaccharides from Soymilk” (Foods, 2022)", "type_in_all_cases": "biochemical, Hymenopellis radicata", "key": {"[1]": {"test_system": "T1, ORG (O. radicata α-galactosidase)", "T1 construct": "native, purified from commercial dry fruiting bodies; 74 kDa by gel filtration, SDS-PAGE bands 50 and 24 kDa", "experiment": "reducing sugar release (DNS method), Michaelis-Menten plot", "conditions": "free enzyme, 50 °C", "text": "reducing sugar release (DNS method), Michaelis-Menten plot on ORG (O. radicata α-galactosidase)"}, "[2]": {"target": "T1, ORG (O. radicata α-galactosidase)", "experiment": "pNPG hydrolysis, absorbance at […] nm, Dixon plot", "conditions": "mixed-type inhibition; pNPG 1.5-3 mM as substrate, NaAc-HAc pH 4.6, 40 °C"}, "[3]": {"test_system": "T1, ORG (O. radicata α-galactosidase)", "experiment": "p-nitrophenol release, absorbance at […] nm, Michaelis-Menten plot", "conditions": "free enzyme; pNPG 0.5-4 mM, NaAc-HAc pH 4.6, 40 °C"}}, "data": [{"smiles": "OC[C@H]1O[C@H](OC[C@H]2O[C@H](O[C@]3(CO)O[C@H](CO)[C@@H](O)[C@@H]3O)[C@H](O)[C@@H](O)[C@@H]2O)[C@H](O)[C@@H](O)[C@H]1O", "note": "[raffinose]", "values": [{"measurement": "Km", "setting": "[1]; raffinose 2-40 mM, read-out: Raffinose / Km", "value": 16.5, "unit": "mM"}]}, {"smiles": "OC[C@H]1O[C@H](OC[C@H]2OC(O)[C@H](O)[C@@H](O)[C@@H]2O)[C@H](O)[C@@H](O)[C@H]1O", "note": "(some centres unmarked) [melibiose]", "values": [{"measurement": "Ki", "setting": "[2]", "value": 1.86, "unit": "mM"}]}, {"smiles": "OC[C@H]1OC(O)[C@H](O)[C@@H](O)[C@H]1O", "note": "(some centres unmarked) [galactose]", "values": [{"measurement": "Ki", "setting": "[2]", "value": 5.94, "unit": "mM"}]}, {"smiles": "OC[C@H]1O[C@H](OC[C@H]2O[C@H](OC[C@H]3O[C@H](O[C@]4(CO)O[C@H](CO)[C@@H](O)[C@@H]4O)[C@H](O)[C@@H](O)[C@@H]3O)[C@H](O)[C@@H](O)[C@H]2O)[C@H](O)[C@@H](O)[C@H]1O", "note": "[stachyose]", "values": [{"measurement": "Km", "setting": "[1]; stachyose 2-40 mM, read-out: Stachyose / Km", "value": 19, "unit": "mM"}]}, {"smiles": "O=[N+]([O-])c1ccc(O[C@H]2O[C@H](CO)[C@H](O)[C@H](O)[C@H]2O)cc1", "note": "[4-nitrophenyl-α-D-galactopyranoside]", "values": [{"measurement": "Km", "setting": "[3]", "value": 0.58, "unit": "mM"}]}]}
